What was measured:
Rattus norvegicus [1] = assay: Sedative activity in Sprague-Dawley rat assessed as duration time at 2 times of EC50 administered as bolus dose; assay type: functional
Rattus norvegicus [2] = assay: Sedative activity in Sprague-Dawley rat at 10 to 110 microg/ml, iv administered as bolus dose by dixon analysis; assay type: functional
Rattus norvegicus [3] = species: Rattus norvegicus; assay: Sedative activity in Sprague-Dawley rat assessed as onset time at 2 times of EC50; assay type: functional; conditions: dose 10-110 µg/ml; route iv
[4] = Toxicity in Sprague-Dawley rat assessed as survival rate at 2 times of EC50; conditions: in vivo, read-out: Activity
[5] = Prodrug conversion in Sprague-Dawley rat assessed as dexmedetomidine release at 2 times of ED50; assay type: ADME; conditions: in vivo
[6] = Cardiotoxicity in Sprague-Dawley rat assessed as decrease in blood pressure at 20 to 80 microg/ml, iv administered as bolus dose by ECG analysis; assay type: toxicity, organism-based; set-up: scale not given: the % may be the effect or the level left; conditions: in vivo, at 20 to 80 µg/mL, dose 20-80 µg/ml
[7] = Cardiotoxicity in Sprague-Dawley rat assessed as reduction in heart rate at 20 to 80 microg/ml, iv administered as bolus dose by ECG analysis; assay type: toxicity, organism-based; conditions: in vivo, dose 20-80 µg/ml
[8] = Prodrug conversion in Sprague-Dawley rat plasma assessed as dexmedetomidine release measured at 5 mins by HPLC analysis; assay type: ADME, cell-free
[9] = Prodrug conversion in Sprague-Dawley rat plasma assessed as dexmedetomidine release measured at 2 mins by HPLC analysis; assay type: ADME, cell-free
[10] = Cardiotoxicity in Sprague-Dawley rat assessed as change in heart rate at 20 to 80 microg/ml, iv administered as bolus dose by ECG analysis; assay type: toxicity, organism-based; conditions: in vivo, at 20 to 80 µg/mL, dose 20-80 µg/ml
[11] = Prodrug conversion in Sprague-Dawley rat plasma assessed as dexmedetomidine release measured at 15 mins by HPLC analysis; assay type: ADME, cell-free; conditions: 0.25 h
[12] = Cardiotoxicity in Sprague-Dawley rat assessed as bradycardia at 20 to 80 microg/ml, iv administered as bolus dose by ECG analysis; assay type: toxicity, organism-based; conditions: in vivo, at 20 to 80 µg/mL, dose 20-80 µg/ml
[13] = Prodrug conversion in Sprague-Dawley rat plasma assessed as dexmedetomidine release measured at 30 mins by HPLC analysis; assay type: ADME, cell-free; conditions: 0.5 h
[14] = Cardiotoxicity in Sprague-Dawley rat assessed as decrease in blood pressure at 20 to 80 microg/ml, iv administered as bolus dose measured for 45 mins by ECG analysis; assay type: toxicity, organism-based; set-up: scale not given: the % may be the effect or the level left; conditions: in vivo, 0.75 h, at 20 to 80 µg/mL, dose 20-80 µg/ml
[15] = Prodrug conversion in Sprague-Dawley rat plasma assessed as dexmedetomidine release measured at 1 hr by HPLC analysis; assay type: ADME, cell-free

| Compound | Time (Rattus norvegicus [1]) | ED50 (Rattus norvegicus [2]) | Time (Rattus norvegicus [3]) | survival [4] | Drug metabolism [5] | Activity [6] | Activity [7] | Drug metabolism [8] | Drug metabolism [9] | Activity [10] | Drug metabolism [11] | Activity [12] | Drug metabolism [13] | Activity [14] | Drug metabolism [15] |
| --- | --- | --- | --- | --- | --- | --- | --- | --- | --- | --- | --- | --- | --- | --- | --- |
| Cc1cccc([C@H](C)c2cn(COC(=O)OC(C)C)cn2)c1C.Cl | 2458.7 s | 0.0311 mg/kg | 305.2 s | 100% | 35.33 µg/kg | – | – | – | – | – | – | – | – | – | – |
| Cc1cccc([C@H](C)c2cn(COC(=O)OC3CCC3)cn2)c1C.Cl | 3189.5 s | 0.0268 mg/kg | 185 s | 100% | 29.48 µg/kg | 34.79% | Toxic | Metabolite_Detected | Metabolite_Detected | – | – | – | – | – | – |
| Cc1cccc([C@H](C)c2cn(COC(=O)C(C)(C)C)cn2)c1C.Cl | 3091.8 s | 0.0551 mg/kg | 157.9 s | 100% | 62.94 µg/kg | 14.57% | Toxic | – | – | -27.08% | – | – | – | – | – |
| CCCOC(=O)n1cnc([C@@H](C)c2cccc(C)c2C)c1 | 2605.7 s | 0.0255 mg/kg | 142.1 s | 100% | 31.7 µg/kg | 28.23% | – | – | – | – | – | – | – | – | – |
| Cc1cccc([C@H](C)c2cn(C(=O)OC(C)C)cn2)c1C.Cl | 3984.1 s | 0.0446 mg/kg | 239.3 s | 100% | 55.39 µg/kg | 22.4% | Toxic | – | – | -22.88% | Metabolite_Detected | -22.88% | – | – | – |
| CC(=O)OC(C)n1cnc([C@@H](C)c2cccc(C)c2C)c1.Cl (stereo not given in full) | 2274.1 s | 0.0263 mg/kg | 117 s | 100% | 32.61 µg/kg | 14.67% | – | – | – | – | – | – | Metabolite_Detected | – | – |
| Cc1cccc([C@H](C)c2cn(C(=O)OCC(C)C)cn2)c1C.Cl | 2802.9 s | 0.0359 mg/kg | 151.9 s | 100% | 42.7 µg/kg | 34.65% | Toxic | – | – | – | – | – | – | – | – |
| CCOC(=O)OCn1cnc([C@@H](C)c2cccc(C)c2C)c1.Cl | 2887.7 s | 0.0292 mg/kg | 122.5 s | 100% | 34.47 µg/kg | – | Toxic | – | – | – | – | -24.88% | – | – | – |
| CCOC(=O)COC(=O)OCn1cnc([C@@H](C)c2cccc(C)c2C)c1.Cl | 3177.7 s | 0.0468 mg/kg | 68.2 s | 100% | 47.22 µg/kg | – | Toxic | – | – | – | – | – | – | 28.49% | – |
| CCOC(=O)CCC(=O)OCn1cnc([C@@H](C)c2cccc(C)c2C)c1.Cl | 2484.1 s | 0.0273 mg/kg | 116 s | 100% | 27.67 µg/kg | – | Toxic | – | – | – | – | – | – | – | Metabolite_Detected |
| CCOC(=O)n1cnc([C@@H](C)c2cccc(C)c2C)c1.Cl | 1971.4 s | 0.0213 mg/kg | 289.1 s | 100% | 27.61 µg/kg | – | – | – | – | – | – | – | – | – | – |
| COC(=O)COC(=O)OCn1cnc([C@@H](C)c2cccc(C)c2C)c1.Cl | 3795.2 s | 0.0487 mg/kg | 94.9 s | 100% | 50.93 µg/kg | – | Toxic | – | – | – | – | – | – | 31.3% | – |
| CCCC(=O)OCn1cnc([C@@H](C)c2cccc(C)c2C)c1.Cl | 1941.9 s | 0.0211 mg/kg | 265 s | 100% | 25.15 µg/kg | 20.07% | Toxic | Metabolite_Detected | – | -29.92% | – | – | – | – | – |
| CCC(=O)OCn1cnc([C@@H](C)c2cccc(C)c2C)c1.Cl | 2325.8 s | 0.0268 mg/kg | 184.4 s | 100% | 33.32 µg/kg | 34.92% | – | Metabolite_Detected | – | – | – | – | – | – | – |
| CC(=O)OCn1cnc([C@@H](C)c2cccc(C)c2C)c1.Cl | 2483.6 s | 0.0321 mg/kg | 252.4 s | 100% | 41.68 µg/kg | – | – | – | – | – | – | – | – | 29.66% | – |
| Cc1cccc([C@H](C)c2cn(COC(=O)C(C)C)cn2)c1C.Cl | 3798.6 s | 0.0399 mg/kg | 63.9 s | 100% | 47.44 µg/kg | – | – | Metabolite_Detected | – | – | – | – | – | – | – |
| Cc1cccc([C@H](C)c2cn(COC(=O)c3ccccc3)cn2)c1C.Cl | 4457.7 s | 0.0595 mg/kg | 204.1 s | 100% | 64.29 µg/kg | – | Toxic | – | – | – | – | – | Metabolite_Detected | – | – |
| CCC(=O)OC(C)n1cnc([C@@H](C)c2cccc(C)c2C)c1.Cl (stereo not given in full) | 2295.6 s | 0.035 mg/kg | 159.8 s | 100% | 41.58 µg/kg | – | Toxic | – | – | – | – | – | Metabolite_Detected | 32.17% | – |
| Cc1cccc([C@H](C)c2cn(COC(=O)C3CC3)cn2)c1C.Cl | 2410 s | 0.0298 mg/kg | 195.2 s | 100% | 35.67 µg/kg | – | – | – | – | – | – | – | – | – | – |
| COC(=O)n1cnc([C@@H](C)c2cccc(C)c2C)c1.Cl | 2018.2 s | 0.02 mg/kg | 219.5 s | 100% | 25.77 µg/kg | 17.35% | – | – | – | – | Metabolite_Detected | – | – | – | – |
| Cc1cccc([C@H](C)c2cn(COC(=O)C3CCC3)cn2)c1C.Cl | 2841.2 s | 0.034 mg/kg | 214.4 s | 100% | 39.02 µg/kg | – | – | – | – | – | – | – | – | – | – |
| Cc1cccc([C@H](C)c2cncn2COP(=O)([O-])[O-])c1C.[Na+].[Na+] | 3966.6 s | 0.0402 mg/kg | 206.5 s | 100% | 45.5 µg/kg | 15.15% | – | – | – | – | – | – | – | – | – |
| Cc1cccc([C@H](C)c2cn(COC(=O)OC3CC3)cn2)c1C.Cl | 2795.7 s | 0.0232 mg/kg | 92.1 s | 100% | 26.53 µg/kg | 37.25% | – | Metabolite_Detected | Metabolite_Detected | – | – | – | – | – | – |
| COC(=O)OCn1cnc([C@@H](C)c2cccc(C)c2C)c1.Cl | 2017.2 s | 0.0232 mg/kg | 259.6 s | 100% | 28.68 µg/kg | 16.35% | – | – | – | – | – | – | – | – | – |
| Cc1cccc([C@H](C)c2cnc[nH]2)c1C [DEXMEDETOMIDINE] | 3312 s | 0.0168 mg/kg | 87.8 s | 100% | 28.38 µg/kg | 43.55% | – | – | – | -33.58% | – | -41.07% | – | – | – |
| COC(=O)CCC(=O)OCn1cnc([C@@H](C)c2cccc(C)c2C)c1.Cl | 2733.9 s | 0.0301 mg/kg | 78.9 s | 100% | 31.71 µg/kg | – | Toxic | – | – | – | – | – | – | – | Metabolite_Detected |
